This note sets out measurements from EP0513703A2, “Carbamate esters of eseroline having anticholinesterase activity, a process for their preparation and relative pharmaceutical compositions containing them as the active principle” (priority 1991, dated 1992).

Like-named read-outs stand apart in the source and are kept apart here.

One may read the LD50 as the dose expected to kill half of the subjects tested.

For data set [1], the system named is mice (Swiss strain). The data set is described as follows: Acute toxicity, LD50 by oral route in mice (class D derivatives). Format: in vivo. The conditions noted are these: mouse, suspension in 2 % carboxymethylcellulose, observation 7 days. An excerpt: (§1) The letal doses 50 (LD50) by oral route (suspension in 2 % carboxymethylcellulose) are reported hereinbelow: TABLE 6

Data set [2] deals with acetylcholinesterase (AchE). Format: in vivo, Wistar male rats. The conditions noted are these: rat.
The test system of data set [3] is mouse. The data set is described as follows: Spontaneous motility, Dews method modified according to Carminati (class D derivatives). The data set is classed as in vivo. The conditions noted are these: mouse (Swiss). An excerpt:
(§2) The Dews method was used, modified according to Carminati (Arch. int. Pharmacodyn. et Thér 181, 68,1969).

In data set [4] the test system is SWISS male mice. Nature of the data set: Electroencephalographic activity (class D derivatives). The data set is classed as in vivo. The conditions noted are these: 3mg/kg/os, in the course of the successive 30 minutes.
In the next data set the test system is rabbit. The data set is described as follows: Effect on the duration of the curarization by succinylcholine (class D derivatives). The data set is classed as in vivo. The conditions noted are these: anesthetized rabbit, 0.5 mg intravenous.
Data set [5] can be described thus: Pharmacokinetics, plasma level by HPLC (MGF001). The data set is classed as in vivo, Wistar male rats. The conditions noted are these: rat, 2mg/kg/os. On the procedure:
The presence of said substance in plasma was detected by HPLC.
With the optimized method the detection limit was of 0.15 µg per ml of plasma.

In data set [6] the test system is mice (Swiss strain). The data set is described as follows: Acute toxicity, LD50 by oral route in mice (class E derivatives). The conditions noted are these: mouse, suspension in 2 % carboxymethylcellulose, observation 7 days. Format: in vivo. An excerpt:
(§3) The letal doses 50 (LD50) by oral route (suspension in 2 % carboxymethylcellulose) are reported herinbelow: TABLE 9

For the next data set, the system named is acetylcholinesterase. Format: in vivo, Wistar male rats. The conditions noted are these: rat.
For data set [7], the system named is mouse. The data set is described as follows: Spontaneous motility, Dews method modified according to Carminati (class E derivatives). The data set is classed as in vivo. The conditions noted are these: mouse (Strain Swiss).
Description: as §2

For data set [8], the system named is SWISS male mice. The data set is described as follows: Electroencephalographic activity (class E derivatives). The data set is classed as in vivo. The conditions noted are these: 0.4 mg/kg/os, in the course of the successive 30 minutes.
The nature of data set [9]: Pharmacokinetics, plasma level by HPLC (MS001). Format: in vivo, Wistar male rats. The conditions noted are these: rat, 0.5 mg/kg/os. On the procedure:
The presence of MS001 in plasma was detected by HPLC.
With the optimized method the detection limit was of 0.20 µg per ml of plasma.

Data set [10] is described as follows: Acute toxicity, LD50 by oral route in mice (class A derivatives). The data set is classed as in vivo. The conditions noted are these: both sexes, Swiss, in vivo, mouse, suspension in 2 % carboxymethylcellulose, observation 7 days, read-out: LD50 per os. An excerpt:
The letal doses 50 (LD50) by oral route (suspension in 2 % carboxymethylcellulose) are reported herinbelow: TABLE 1

Data set [11] has as its system mouse. The data set is described as follows: Spontaneous motility, Dews method modified according to Carminati (class A derivatives). Format: in vivo. The conditions noted are these: mouse (Swiss), minimum doses.
Description: as §2

In data set [12] the test system is SWISS mice. The data set is described as follows: Antagonism of the central stimulating (hypermotor) effect of scopolamine (class A derivatives). The conditions noted are these: given 30 minutes before scopolamine 1 mg/kg s.c. Format: in vivo. From the text:
(§4) At this dose the substance provoked in all the animals a considerable increase (80-100%) of the spontaneous motility, studied according to the above mentioned method.

For a further data set, the system named is mice. Nature of the data set: Toxicity, LD50 by intraperitoneal route (class B derivatives). The data set is classed as in vivo. The conditions noted are these: death within 24 hours of 50% of the tested animals. An excerpt:
In the following table reported are LD50 values determined on mice for the listed compounds and compared with that of physostigmine administered by the same (intraperitoneal) route.

The subject of data set [13] is mouse. Nature of the data set: Toxicity, LD50 by intraperitoneal route (class C derivatives). The data set is classed as in vivo. From the text: In the following table reported are the LD50 values determined on mouse for the compounds listed and compared with the corresponding LD50 value for physostigmine, administered by the same (intraperitoneal) route.
Data set [14] is described as follows: Acute toxicity, LD50 by oral route in mice (class D derivatives). The conditions noted are these: both sexes, Swiss, in vivo, mouse, suspension in 2 % carboxymethylcellulose, observation 7 days, read-out: LD50 per os. Format: in vivo.
Description: as §1

Data set [15] relates to SWISS mice. Nature of the data set: Antagonism of the central stimulating (hypermotor) effect of scopolamine (class D derivatives). The conditions noted are these: given 30 minutes before scopolamine 1 mg/kg s.c. Format: in vivo.
Description: as §4

The nature of data set [16]: Acute toxicity, LD50 by oral route in mice (class E derivatives). The conditions noted are these: both sexes, Swiss, in vivo, mouse, suspension in 2 % carboxymethylcellulose, observation 7 days, read-out: LD50 per os. Format: in vivo.
Description: as §3

Data set [17] concerns SWISS mice. Nature of the data set: Antagonism of the central stimulating (hypermotor) effect of scopolamine (class E derivatives). Format: in vivo. The conditions noted are these: given 30 minutes before scopolamine 1 mg/kg s.c. From the text: At this dose the substance provoked a considerable increase (80-100%) of the spontaneous motility, studied according to the above mentioned method.

Data set [18] in a line: Acute toxicity, LD50 by oral administration in mice (class F derivatives). The conditions noted are these: both, Swiss, mouse, in vivo, po.
Where [19] appears, read: acetylcholinesterase inhibition 20 minutes after oral administration, limits in brackets.

Molecule `CNCCCCCCCNC(=O)Oc1ccc2c(c1)[C@]1(C)CCN(C)[C@@H]1N2C` [MGF001, (3a S-cis) - 1,2,3,3a,8,8a hexahydro - 1,3a,8 - trimethyl pyrrol [2,3-b]-indol-5-ol-N-methyl-aminoheptyl carbamate ester] showed an LD50 per os in the data set on mice (Swiss strain) [1] of 461.44 ± 51.33 mg/kg. In addition, in data set [2] (2 mg/kg/OS), the “INHIBITION % OF ACETYLCHOLINESTERASE (AchE) after 60 minutes brain” value is reported as 46.38 ± 4.12%, the “INHIBITION % OF ACETYLCHOLINESTERASE (AchE) after 60 minutes serum” value is given as 42.6 ± 5.28%, the “INHIBITION % OF ACETYLCHOLINESTERASE (AchE) after 120 minutes brain” value came to 25.45 ± 2.18% and the “INHIBITION % OF ACETYLCHOLINESTERASE (AchE) after 120 minutes serum” value stood at 19.83 ± 4.27%. In [2] (setting [19]), the “ED50 (mg/kg/os) brain” value is listed as 1.83 (1.14 - 2.94) mg/kg/os and the “ED50 (mg/kg/os) serum” value was 1.90 (1.13 - 3.20) mg/kg/os. In addition, the “inhibitory acetylcholinesterase activity (in words)” value in data set [2] (oral, 1-2 mg/kg) was “clear inhibitory dose-dependent and reversible”. In addition, the “oral dose causing a significant decrease of the spontaneous motility” value (“oral dose causing a significant decrease” below) in the data set with mouse [3] is 2.5 to 5 mg/kg. In the data set on SWISS male mice [4], the “modifications of the electroencephalogram” value is “increase of the amplitude and a decrease of the frequency of the electroencephalogram”. In the data set on rabbit, the “curare effect of succinylcholine compared with physostigmine” value is on record as “prolonged in the same way as physostigmine the curare effect of succinylcholine”. Besides, in data set [5], the “concentration in plasma after 20 minutes” value is 11480 ± 2230 ng/mL, the “concentration in plasma after 120 minutes” value is 28410 ± 8400 ng/mL, the “concentration in plasma after 12 hours” value was 10640 ± 5460 ng/mL and the “maximum peak in plasma” value turned out to be 47.60 ± 9.12 µg/mL. The “time of the maximum peak in plasma” value in [5] is given as 90 '.
In the data set with mice (Swiss strain) [6], `CN1CC[C@@]2(C)c3cc(OC(=O)NCCCCCCCCNC(=O)Oc4ccc5c(c4)[C@]4(C)CCN(C)[C@@H]4N5C)ccc3N(C)[C@@H]12` [MS001, (3a S-cis) - 1,2,3,3a,8,8a hexahydro - 1,3a,8 - trimethyl pyrrol [2,3-b]-indol-5-ol-1,8-octandicarbamate ester] came in with an LD50 per os of 51.40 ± 5.48 mg/kg. Besides, in the data set with acetylcholinesterase (0.2 mg/kg/OS), the “INHIBITION % OF ACETYLCHOLINESTERASE (AchE) after 60 minutes brain” value is 43.41 ± 3.25%, the “INHIBITION % OF ACETYLCHOLINESTERASE (AchE) after 60 minutes serum” value was 36.22 ± 6.20%, the “INHIBITION % OF ACETYLCHOLINESTERASE (AchE) after 120 minutes brain” value came to 19.6 ± 3.41% and the “INHIBITION % OF ACETYLCHOLINESTERASE (AchE) after 120 minutes serum” value is listed as 23.12 ± 5.28%. Besides, in the data set with acetylcholinesterase (setting [19]), the “ED50 (mg/kg/os) brain” value was 0.17 (0.12 - 0.23) mg/kg/os and the “ED50 (mg/kg/os) serum” value was 0.18 (0.12 - 0.26) mg/kg/os. Moreover, in the data set on mouse [7], the “oral dose causing a significant decrease” value came out at 0.25 mg/kg. For the same molecule, in the data set on mouse [7] (oral, 0.25 mg/kg), the “decrease of the spontaneous motility (on average)” value is recorded as approximately -25%. In the data set on SWISS male mice [8], the “modifications of the electroencephalogram” value was “increase of the amplitude and a decrease of the frequency of the electroencephalogram”. In data set [9], the “concentration in plasma after 15 minutes” value was determined as 10640 ± 6260 ng/mL, the “concentration in plasma after 120 minutes” value worked out at 32120 ± 6410 ng/mL, the “concentration in plasma after twelve hours” value came out at 11310 ± 3180 ng/mL and the “maximum peak in plasma” value is 41.24 ± 8.36 µg/mL. In addition, the “time of the maximum peak in plasma” value in data set [9] is reported as 90 '.
With `CNC(=O)Oc1ccc2c(c1)[C@]1(C)CCN(C)[C@@H]1N2C` [Physostigmine, physostigmine, reference compound], the LD50 at 7 days is 4.37 ± 1.22 mg/kg in data set [10], 4.12 ± 0.89 mg/kg in data set [14] and 3.78 ± 0.86 mg/kg in data set [16]. Besides, the “oral dose causing a significant decrease” value with mouse [11], in the data set with mouse [3] and with mouse [7] was 0.6 mg/kg in each case. Moreover, the “dose completely undoing the hypermotor effect of scopolamine” value in the data set on SWISS mice [12], with SWISS mice [15] and with SWISS mice [17] was 0.4 mg/kg/os each time. Also, the “LD50 (mg/kg i.p.)” value with mice turned out to be 0.6 mg/kg i.p. Besides, the “LD50 (mg/kg i.p)” value with mouse [13] is reported as 0.6 mg/kg i.p. In the data set with acetylcholinesterase (in vivo, 0.4 mg/kg), the “INHIBITION % OF ACETYLCHOLINESTERASE (AchE) after 60 minutes brain” value stood at 22.3 ± 5.12%. For the same molecule, the “INHIBITION % OF ACETYLCHOLINESTERASE (AchE) after 60 minutes serum” value in the data set with acetylcholinesterase (in vivo, 0.4 mg/kg) is recorded as 18.41 ± 4.16%. Besides, in the data set on acetylcholinesterase (in vivo, 0.4 mg/kg), the “INHIBITION % OF ACETYLCHOLINESTERASE (AchE) after 120 minutes brain” value was found to be 2.41 ± 1.33%. Further, in the data set with acetylcholinesterase (in vivo, 0.4 mg/kg), the “INHIBITION % OF ACETYLCHOLINESTERASE (AchE) after 120 minutes serum” value is on record as 3.44 ± 1.21%. Moreover, in the data set on acetylcholinesterase (in vivo, po), the “ED50 (mg/kg/os) brain” value is listed as 0.38 (0.24 - 0.60) mg/kg/os. For the same molecule, in the data set with acetylcholinesterase (in vivo, po), the “ED50 (mg/kg/os) serum” value is reported as 0.37 (0.23 - 0.59) mg/kg/os. The LD50 in [18] was determined as 4.5 mg/kg.
